Assay results reported in US20240199587A1, “HETEROCYCLIC COMPOUNDS” (Hoffmann-La Roche Inc., priority 2021, published 2024).

molecular target: T1, MAGL (Homo sapiens, UniProt Q99685); test: 2-AG assay (MAGL inhibitory activity, hydrolysis of 2-arachidonoylglycerol to arachidonic acid followed by mass spectrometry); assay type: biochemical; settings: 8 μM 2-arachidonoylglycerol, 15 min pre-incubation, 30 min incubation at RT, RapidFire MS readout
T1 sequence (Q99685 1-303): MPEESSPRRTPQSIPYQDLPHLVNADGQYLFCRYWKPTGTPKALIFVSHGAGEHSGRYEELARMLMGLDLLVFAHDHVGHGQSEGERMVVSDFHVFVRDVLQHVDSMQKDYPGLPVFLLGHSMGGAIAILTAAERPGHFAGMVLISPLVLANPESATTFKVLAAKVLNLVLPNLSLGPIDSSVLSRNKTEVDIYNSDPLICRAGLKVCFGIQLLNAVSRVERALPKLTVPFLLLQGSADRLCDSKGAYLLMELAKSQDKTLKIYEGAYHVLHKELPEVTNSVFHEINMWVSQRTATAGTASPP
In short: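 Arachidonic acid released from 8 μM 2-arachidonoylglycerol was quantified by online SPE triple-quadrupole MS (negative ESI, 303.1→259.1), normalised to d8-arachidonic acid internal standard. Reaction ran 30 min at RT after 15 min RT compound pre-incubation with […] MAGL in TRIS/EDTA/Tween-20 buffer, 2.5% DMSO.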

Compound | IC50 [nM]
O=C(N1CC2(CC(n3cnc(C4CC4)n3)C2)C1)N1CC2(CN(Cc3ccc(F)cc3Cl)C2)C1 [Example 201, (6-(2-chloro-4-fluorobenzyl)-2,6-diazaspiro[3.3]heptan-2-yl)(6-(3-cyclopropyl-1H-1,2,4-triazol-1-yl)-2-azaspiro[3.3]heptan-2-yl)methanone] | 0.7
Cc1cc(F)c(F)cc1O[C@H]1C[C@@H]2CN(C(=O)N3CC4(CC(n5cnc(C6CC6)n5)C4)C3)C[C@@H]2C1 [Example 128, [6-(3-cyclopropyl-1,2,4-triazol-1-yl)-2-azaspiro[3.3]heptan-2-yl]-[rac-(3aS,6aR)-5-(4,5-difluoro-2-methyl-phenoxy)-3,3a,4,5,6,6a-hexahydro-1H-cyclopenta[c]pyrrol-2-yl]methanone] | 1.8
O=C(N1CC2(CC(n3cnc(C4CC4)n3)C2)C1)N1CC2(CN(Cc3ccc(C(F)(F)F)cn3)C2)C1 [Example 232] | 4.6
O=C(N1CC2(CC(n3cnc(C4CC4)n3)C2)C1)N1CC2(CN(Cc3ccc(F)cc3F)C2)C1 [Example 234, [6-(3-cyclopropyl-1,2,4-triazol-1-yl)-2-azaspiro[3.3]heptan-2-yl]-[6-[(2,4-difluorophenyl)methyl]-2,6-diazaspiro[3.3]heptan-2-yl]methanone] | 5.4
O=C(N1CC(c2noc(C3(C(F)(F)F)CC3)n2)C1)N1CC2(CC(n3cnc(C4CC4)c3)C2)C1 [Example 141] | 332
N#Cc1cc(OC(F)(F)F)ccc1OC1CC2(C1)CN(C(=O)N1CC3(CC(n4cnc(C5CC5)n4)C3)C1)C2 [Example 47] | 0.2
Cc1ccc(C2CC3(C2)CN(C(=O)c2ccc(-c4noc(C(C)(C)C)n4)cc2)C3)cn1 [Example 23, [4-(5-tert-butyl-1,2,4-oxadiazol-3-yl)phenyl]−[6-(6-methyl-3-pyridyl)-2-azaspiro[3.3]heptan-2-yl]methanone] | 229
COc1ccn(C2CC3(C2)CN(C(=O)c2ccc(-c4noc(C(C)(C)C)n4)cc2)C3)n1 [Example 13, [4-(5-tert-butyl-1,2,4-oxadiazol-3-yl)phenyl]-[6-(3-methoxypyrazol-1-yl)-2-azaspiro[3.3]heptan-2-yl]methanone] | 152
[6-[3-(1- hydroxycyclopropyl)- 1,2,4-triazol-1-yl]-2- azaspiro[3.3]heptan-2- yl]-[6-[4- (trifluoromethyl)-2- pyridyl]methyl]-2- azaspiro[3.3]heptan-2- yl]methanone [Example 400] | 4.65
O=C(N1CC2(CC(Oc3ccc(C(F)(F)F)cn3)C2)C1)N1CC2(CC(n3cnc(C4CC4)n3)C2)C1 [Example 52, [6-(3-cyclopropyl-1,2,4-triazol-1-yl)-2-azaspiro[3.3]heptan-2-yl]-[6-[[5-(trifluoromethyl)-2-pyridyl]oxy]-2-azaspiro[3.3]heptan-2-yl]methanone] | 0.4
CC(C)(C)n1cc(-c2ccc(C(=O)N3CC4(CC(n5cnc(Cl)n5)C4)C3)cc2)cn1 [Example 170, [4-(1-tert-butylpyrazol-4-yl)phenyl]-[6-(3-chloro-1,2,4-triazol-1-yl)-2-azaspiro[3.3]heptan-2-yl]methanone] | 286

The next lines start with the values.

IC50 [nM] | Compound
35.7 | O=C(N1CC(CNS(=O)(=O)c2ccc(C(F)(F)F)cc2)C1)N1CC2(CC(n3cnc(C4CC4)n3)C2)C1 [Example 276, N-[[1-[6-(3-cyclopropyl-1,2,4-triazol-1-yl)-2-azaspiro[3.3]heptane-2-carbonyl]azetidin-3-yl]methyl]-4-(trifluoromethyl)benzene-sulfonamide]
0.56 | O=C(N1CC(c2ccc(N3CC[C@H](C(F)(F)F)C3)nc2)C1)N1CC2(CC(n3cnc(C4CC4)n3)C2)C1 [Example 476, [6-(3-cyclopropyl-1,2,4-triazol-1-yl)-2-azaspiro[3.3]heptan-2-yl]-[3-[6-[(3S)-3-(trifluoromethyl)pyrrolidin-1-yl]-3-pyridyl]azetidin-1-yl]methanone]
6.69 | CS(=O)(=O)c1cccc(CC2CC3(C2)CN(C(=O)N2CC4(CC(n5cnc(C6(O)CC6)n5)C4)C2)C3)c1 [Example 490, [6-[3-(1-hydroxycyclopropyl)-1,2,4-triazol-1-yl]-2-azaspiro[3.3]heptan-2-yl]-[6-[(3-methylsulfonylphenyl)methyl]-2-azaspiro[3.3]heptan-2-yl]methanone]
6.74 | CS(=O)(=O)c1cccc(CN2CC3(C2)CN(C(=O)N2CC4(CC(n5cnc(C6CC6)n5)C4)C2)C3)c1 [Example 501, [6-(3-cyclopropyl-1,2,4-triazol-1-yl)-2-azaspiro[3.3]heptan-2-yl]-[6-[(3-methylsulfonylphenyl)methyl]-2,6-diazaspiro[3.3]heptan-2-yl]methanone]
41.3 | Cc1noc(C)c1S(=O)(=O)N1CC2(CN(C(=O)N3CC4(CC(n5cnc(C6CC6)n5)C4)C3)C2)C1 [Example 281, [6-(3-cyclopropyl-1,2,4-triazol-1-yl)-2-azaspiro[3.3]heptan-2-yl]-[2-(3,5-dimethylisoxazol-4-yl)sulfonyl-2,6-diazaspiro[3.3]heptan-6-yl]methanone]
2.94 | CS(=N)(=O)c1ccc(CC2CC3(C2)CN(C(=O)N2CC4(CC(n5cnc(C6CC6)n5)C4)C2)C3)cc1 (stereo not shown) [Example 462, [6-(3-cyclopropyl-1,2,4-triazol-1-yl)-2-azaspiro[3.3]heptan-2-yl]-[6-[[4-(methylsulfonimidoyl)phenyl]methyl]-2-azaspiro[3.3]heptan-2-yl]methanone]
17.2 | CS(=N)(=O)c1ccc(CC2CC3(C2)CN(C(=O)N2CC4(CC(n5cnc(C(F)(F)F)n5)C4)C2)C3)cc1 (stereo not shown) [Example 430, [6-[[4-(methylsulfonimidoyl)phenyl]methyl]-2-azaspiro[3.3]heptan-2-yl]-[6-[3-(trifluoromethyl)-1,2,4-triazol-1-yl]-2-azaspiro[3.3]heptan-2-yl]methanone]
26.7 | CS(=O)(=O)c1cccc(CN2CCC3(CC2)CN(C(=O)N2CC4(CC(n5cnc(C6CC6)n5)C4)C2)C3)c1 [Example 485, [6-(3-cyclopropyl-1,2,4-triazol-1-yl)-2-azaspiro[3.3]heptan-2-yl]-[7-[(3-methylsulfonylphenyl)methyl]-2,7-diazaspiro[3.5]nonan-2-yl]methanone]
0.97 | O=C(N1CC(c2ccc(NC3(C(F)(F)F)CC3)nc2)C1)N1CC2(CC(n3cnc(C4CC4)n3)C2)C1 [Example 477, [6-(3-cyclopropyl-1,2,4-triazol-1-yl)-2-azaspiro[3.3]heptan-2-yl]-[3-[6-[[1-(trifluoromethyl)cyclopropyl]amino]-3-pyridyl]azetidin-1-yl]methanone]
77.1 | O=C(c1ccc(F)cc1Cl)N1CC2(C1)CN(C(=O)N1CC3(CC(n4cnc(C5CC5)n4)C3)C1)C2 [Example 292, (2-chloro-4-fluoro-phenyl)-[2-[6-(3-cyclopropyl-1,2,4-triazol-1-yl)-2-azaspiro[3.3]heptane-2-carbonyl]-2,6-diazaspiro[3.3]heptan-6-yl]methanone]
3.28 | CS(=O)(=O)c1cncc(CC2CC3(C2)CN(C(=O)N2CC4(CC(n5cnc(C6CC6)n5)C4)C2)C3)c1 [Example 489, [6-(3-cyclopropyl-1,2,4-triazol-1-yl)-2-azaspiro[3.3]heptan-2-yl]-[6-[(5-methylsulfonyl-3-pyridyl)methyl]-2-azaspiro[3.3]heptan-2-yl]methanone]
